In PubChem BioAssay AID2252 (Southern Research Specialized Biocontainment Screening …, 2010):
Where “and” joins values, the source holds several entries; their conditions need not be identical. Identical values can stand only once.

Test system: THP-1 viability, CellTiter-Glo luminescence, 72 h
Test: PubChem AID 2252

Structure (SMILES)	EC50
CN1CCN(C(c2ccc(Cl)cc2)c2cc(Cl)c3cccnc3c2O)CC1 (configuration not stated)	3.11 µM
O=C(Nc1nc(-c2ccccn2)cs1)c1ccc(Br)s1	1.19 µM
CN1CCN(C(c2ccc(C(F)(F)F)cc2)c2ccc3cccnc3c2O)CC1 (configuration not stated)	1.36 µM
Oc1ccc(CN2CCN(Cc3ccccc3)CC2)c2cccnc12	9.96 µM
CCN1CCN(C2=C(NS(=O)(=O)c3ccc(Br)cc3)C(=O)c3ccccc3C2=O)CC1	18.2 µM
CC(C)(C)c1ccc(OCCCCCCN2CCNCC2)cc1	13.8 µM
CN(C)c1ccc2nc3ccc(=[N+](C)C)cc-3sc2c1	0.72 µM
C=CCc1cc(Cl)ccc1OCCCNCCO	43.1 µM
CC(C)C1N=C(c2ccc3c(c2)OCO3)CC(c2ccccc2O)N1 (configuration not stated)	43.3 µM
COc1cc2c3cc1Oc1cc(ccc1O)C[C@@H]1c4c(cc(OC)c(O)c4Oc4ccc(cc4)C[C@H]3N(C)CC2)CCN1C	8.8 µM
Nc1nc2ccccc2n1Cc1ccc(Cl)c(Cl)c1	31.6 µM
CCCCCCCCn1ccc(=N)cc1	5.47 µM
C[C@H]1c2cccc(O)c2C(O)=C2C(=O)C3(O)C(O)=C(C(N)=O)C(=O)[C@@H](N(C)C)[C@@H]3[C@@H](O)[C@@H]21 (some centres not stated)	30.3 µM
Cc1ccc(Cn2c(=N)c(C(=O)NCc3ccco3)cc3c(=O)n4ccccc4nc32)cc1	42.6 µM
C[C@H]1O[C@@H](n2cc(F)c(=O)[nH]c2=O)[C@H](O)[C@@H]1O	26.7 µM
N#C/C(=C\c1ccc(O)c(O)c1)C(=O)c1ccc(O)c(O)c1	39.1 µM
CO[C@H]1C=CO[C@@]2(C)Oc3c(C)c(O)c4c(O)c(c5c(c4c3C2=O)NC2(CCN(CC(C)C)CC2)N=5)=NC(=O)C(C)=CC=C[C@H](C)[C@H](O)[C@@H](C)[C@@H](O)[C@@H](C)[C@H](OC(C)=O)[C@@H]1C	26 µM
COc1cc(CNC2CCCC2)cc(Cl)c1OCc1ccccc1Cl	14.4 µM
CN(C)CCOCCOc1ccc(Cl)c2ccccc12	48.3 µM
C#CCOCCOCCOCCNc1nc(N2CCN(C(=O)[C@H]([C@@H](C)CC)n3cc([C@@H](N)Cc4ccc(O)cc4)nn3)CC2)nc(N2CCN(C(=O)[C@H](Cc3cc4ccccc4[nH]3)n3cc([C@@H](N)CC(C)C)nn3)CC2)n1	< 0.1 µM
S=C(Nc1cc(Cl)cc(Cl)c1)NC1CCN(Cc2ccccc2)CC1	14.6 µM
CN(C)CCCNc1cc(C(C)(C)C)nc2c(-c3ccc(Cl)cc3)cnn12	7.99 µM

Structure (SMILES)	EC50
CNCCCC1Sc2ccccc2Oc2ccccc21 (configuration not stated)	23.6 µM
CCOC(=O)C1=C(O)c2ccccc2C(=O)/C1=C\c1ccc(C)cc1	23.3 µM
Fc1cccc(Nc2c3c(nc4ccccc24)CCC3)c1	26.3 µM
Cc1nonc1C(=O)N/N=C/c1ccc(O)cc1O	8.05 µM
CCOC(=O)C1=C(c2ccccc2)NC(N)=NC1c1ccc(OCc2ccc(C(=O)OC)cc2)cc1 (configuration not stated)	7.56 µM
COc1ccc(Nc2ccnc3ccccc23)cc1	30.7 µM
C=CCNc1ncnc2c1[nH]c1ccc(C)cc12	29.5 µM
COc1ccc(N2CC(C(=O)N/N=C/c3cc([N+](=O)[O-])ccc3O)CC2=O)cc1 (configuration not stated)	17.7 µM
Fc1ccc(Nc2nc(NCc3ccco3)c3ccccc3n2)cc1	5.9 µM
C(=N\Nc1nc2ccccc2[nH]1)/c1ccc2ncccc2c1	15.6 µM
CCCCOc1ccc(NC2=NC3(CCCC3)N=C(N)N2)cc1	17.4 µM
O=C(N/N=C/c1c[nH]c2ccccc12)c1cc2ccccc2o1	21.3 µM
O=C1c2ccccc2C2=Nc3ccccc3SC(c3ccccc3F)C12 (configuration not stated)	13.8 µM
Cc1cc2nc(C3CCN(CC4COc5ccccc5O4)CC3)[nH]c2cc1C (configuration not stated)	26.8 µM
CCc1nc(N)nc(N)c1-c1ccc(Cl)cc1	10.5 µM
c1ccc(Sc2cccc3ccccc23)c(CNC2=NCCN2)c1	5.87 µM
COc1ccccc1C(=O)NNC1=C(C(=O)C(F)(F)F)CCC1	15.1 µM
COc1cccc(Nc2nc(NCCO)c3ccccc3n2)c1	2.26 µM
O=C(CC1NCCc2ccccc21)Nc1ccc(Oc2ccccc2)cc1 (configuration not stated)	14.3 µM
CCn1cc(C(=O)NCc2ccc3c(c2)OCO3)c(=O)c2cc(F)c(N3CCN(C(=O)c4ccco4)CC3)cc21	19.9 µM
CCCOc1ccc(C(=O)NNC(=S)NC(=O)c2ccco2)cc1	16.8 µM
Cc1cc(OCC(O)CNC(C)c2ccccc2)ccc1C(C)C (configuration not stated)	13.4 µM

Structure (SMILES)	EC50
Cc1cc(=O)[nH]c(-n2nc(C)cc2C)n1	27.8 µM
CN(C)CCCN1c2ccccc2CCc2ccc(Cl)cc21	18.4 µM
Cc1ccc2c(c1)N/C(=C(\C=C(/Cl)[N+](=O)[O-])[N+](=O)[O-])N2	26.8 µM
Cc1cccc2c1Sc1ccc(Cl)cc1CC2N1CCNCC1 (configuration not stated)	6.59 µM
Cc1cc([N+](=O)[O-])nn1CC(=O)N/N=C/c1ccccc1O	6.62 µM
O=[N+]([O-])c1cccc2c(N3CCCC3)ccnc12	9.77 µM
O=C(Cc1ccc([N+](=O)[O-])cc1)N/N=C/c1ccc([N+](=O)[O-])o1	12.1 µM
Cc1c(CCOC(=O)C2C3CC4CC(C3)CC2C4)sc[n+]1CC(=O)c1ccc(Br)cc1 (configuration not stated)	6.34 µM
Oc1cccc(Nc2nc(NCC3CCCO3)c3ccccc3n2)c1 (configuration not stated)	1.36 µM
O=C(N/N=C/c1cc([N+](=O)[O-])ccc1O)C1CC1	27.7 µM
Cc1cc(N2CCC(C)CC2)nc2cccc(O)c12	26.4 µM
CCn1cc(C(=O)O)c(=O)c2cc(F)c(N3CCN(S(=O)(=O)c4ccc(NC(C)=O)cc4)CC3)cc21	47.2 µM
CCOC(=O)Cn1c(=N)n(CCOc2ccc3ccccc3c2)c2ccccc21	17.7 µM
COC(=O)c1ccc(CSc2ccc3nnc(-c4ccc(OC)c(OC)c4)n3n2)o1	10.3 µM
C#CCOCCOCCOCCNc1nc(N2CCN(C(=O)CCCCCCCCCCNC(=O)[C@H]([C@@H](C)CC)n3cc(CCCCN=C(N)N)nn3)CC2)nc(N2CCN(C(=O)CCCCCCCCCCNC(=O)[C@@H]([C@H](C)O)n3cc(C)nn3)CC2)n1	2.98 µM
CC(=O)c1c(C)nc(-c2cccc([N+](=O)[O-])c2)n1O	< 0.1 µM
CCC(C)(c1ccc(C(=O)OC)s1)c1ccc(C(=O)OC)s1	49.7 µM
Cc1oc(/N=C/c2ccc(O)cc2O)c(C#N)c1C	< 0.1 µM
O=C(NNC(=S)NC(=O)c1ccccc1)c1ccc(O)cc1	14.3 µM
CC1(C)CC(N2CCN(c3ccccc3)CC2)=CC(=[N+]2CCCC2)C1	8.86 µM
Cc1ccc(-c2ccccc2NC(=O)CS(=O)CC(=O)Nc2ccc(C)c(Cl)c2)o1 (configuration not stated)	32.2 µM
NC(N)=N/N=C/c1ccc(OCc2ccc(Cl)cc2)cc1	5.57 µM

Structure (SMILES)	EC50
NC(=NCCCCCCN=C(N)/N=C(\N)Nc1ccc(Cl)cc1)/N=C(\N)Nc1ccc(Cl)cc1	3.5 µM and 1.62 µM and 3.91 µM
Clc1ccc2c(c1)c1cc(Cl)ccc1n2CN1CCOCC1	27.2 µM
O=c1cc(-c2ccccc2)cc(-c2ccccc2)n1O	14 µM
NC1=NC2(CCCCC2)N=C(Nc2ccc(Br)cc2)N1	2.39 µM
N=c1c2c(-c3ccccc3)c(-c3ccccc3)n(Cc3ccco3)c2ncn1CCCn1ccnc1	7.71 µM
O=C(N/N=C/c1ccc(O)cc1O)C(=O)N/N=C/c1ccc(O)cc1O	12 µM
O=C(N/N=C/c1ccc([N+](=O)[O-])o1)C(O)c1ccccc1 (configuration not stated)	17.9 µM
NCC/C=C1/c2ccccc2CSc2ccccc21	25.9 µM
CC1CCC(C(C)C)C(OC(=O)Cn2c(-c3ccc(Br)cc3)[n+](C)c3ccccc32)C1 (configuration not stated)	2.16 µM
Cc1ccc(N2C(N)=C(C#N)C(c3cccnc3)C3=C2CC(C)(C)CC3=O)cc1 (configuration not stated)	32.9 µM
CCC[C@H](CN[C@@H](CNC)[C@H](C)CC)NCCc1cc(C(F)(F)F)cc(C(F)(F)F)c1	4.07 µM
O=S1(=O)CC=C(CSc2nc3ccccc3[nH]2)C1	< 0.1 µM
CCC(C)(C)c1ccc(OCCCC[n+]2ccccc2)c(C(C)(C)CC)c1	0.97 µM
COc1cccc(CNCCc2c[nH]c3ccccc23)c1OCc1ccccc1	6.18 µM
Cc1ccc(-n2[nH]c(C)c(C=NCc3ccncc3)c2=O)cc1	31.6 µM
O=C(/C=C/c1ccccc1)c1ccc(NC2=NCCCS2)cc1	27.4 µM
COc1ccc(C(=O)NC(=S)NNC(=O)c2cccc(C)c2)cc1	18.2 µM
O=C(N/N=C/c1ccc([N+](=O)[O-])o1)c1ccc(O)cc1	13.1 µM
Cn1cc(C(=O)N/N=C/C(Br)=C/c2ccccc2)ccc1=O	14.5 µM
Cc1[nH]c2ccccc2c1/C=N/Nc1nc2ccccc2[nH]1	1.52 µM
CCN1/C(=C/C(C)=C/c2sc3ccccc3[n+]2CC)Sc2ccccc21	0.72 µM
CN1CCN(c2nc(Nc3ccc(F)cc3)nc(Nc3ccc(F)cc3)n2)CC1	12.1 µM

Structure (SMILES)	EC50
C#CCOCCOCCOCCNc1nc(N2CCN(C(=O)CCCCCCCCCCNC(=O)[C@@H](CCSC)n3cc(CCO)nn3)CC2)nc(N2CCN(C(=O)CCCCCCCCCCNC(=O)[C@H]([C@@H](C)CC)n3cc(CCCCN=C(N)N)nn3)CC2)n1	9.78 µM
O=C(/C=C/c1cccs1)NC(=S)NNC(=O)c1ccccc1O	2.79 µM
O=C(Cc1ccccc1)N/N=C/c1cc(Br)cc(Cl)c1O	3.7 µM
O=C(N/N=C\C=C\c1ccc([N+](=O)[O-])o1)c1cccs1	34.8 µM
CN(O)/C=c1/ccc2c(n1)C(=O)C=CC=2	25.5 µM
CC1(C)Oc2ccc3ccc(=O)oc3c2/C(=C/NCCN/C=C2\C(=O)C(C)(C)Oc3ccc4ccc(=O)oc4c32)C1=O	< 0.1 µM
COc1ccc(NC(=O)CN(C)S(=O)(=O)c2ccc(Cl)cc2)cc1Cl	< 0.1 µM
CCCCCSc1cc(OC)c(CCNC)cc1OC	13.9 µM
CCN(CC(O)COc1ccc(OCC(O)CN(CC)C2CCCCC2)cc1)C1CCCCC1 (configuration not stated)	37.4 µM
O=C(Cn1cc[n+](CC(=O)c2ccc(Cl)cc2Cl)c1)c1ccc(Cl)cc1Cl	16.1 µM
CCn1ncc(/C=N\NC(=O)c2csc3ccccc23)c1C	19.1 µM
CCSc1ccc2c(c1)N(CCCN1CCN(C)CC1)c1ccccc1S2	12.8 µM
Oc1cc(Cl)ccc1Oc1ccc(Cl)cc1Cl	28.6 µM
C#CCOCCOCCOCCNc1nc(N2CCN(C(=O)CCCCCCCCCCNC(=O)Cn3cc(CCCCCN)nn3)CC2)nc(N2CCN(C(=O)CCCCCCCCCCNC(=O)[C@H]([C@@H](C)CC)n3cc(CCCCCN)nn3)CC2)n1	14.5 µM
c1cc2c(cc1C1CCCCC1)c1c3n2CCN=C3CCC1	11.9 µM
O=C(Cc1cccs1)N/N=C\c1ccc([N+](=O)[O-])s1	12.5 µM
Cc1ccc(Nc2c3c(nc4ccccc24)CCC3)cc1	9.1 µM
CCCCCCCCC1=NCCc2c1[nH]c1ccccc21	15 µM
CN(C)c1ccc(O)c2c1CC1CC3C(N(C)C)C(=O)C(C(N)=O)=C(O)[C@@]3(O)C(=O)C1=C2O (some centres not stated)	33.7 µM
